# Structures can show the parent of a compound that is named as a salt.
# Experiments:
# [1] = compared to its embonic acid salt, subcutaneous injection in mice; cited from earlier work
# [2] = test system: testosterone plasma levels; test: Duration of action in the animal: testosterone suppression after subcutaneous application; assay type: in vivo; conditions: male rats
# Method: Suspensions of the precipitates were applied subcutaneously to male rats in the dose 0.5 mg cetrorelix/kg body weight and determined after application as a measure of the effect of the peptide on testosterone plasma levels. The effect of the cetrorelix consists in reduction of the testosterone level. As a reference an injection suspension was tested as well, that prepared according to DE 4023134 A1 and which contained the peptide embonate in poly(lactic acid, glycolic acid) copolymers. The duration of action of a non-sustained release dosage form of cetrorelix was determined via examination of the aqueous solution of cetrorelix acetate.
# [3] = in vivo, po; cited from earlier work
molecule,measurement,setting,value
CCc1nc(N)nc(N)c1-c1ccc(Cl)cc1 [pyrimethamine],"pharmacokinetic behaviour, plasma level course and AUC",[1],no difference
Ac-DNal-DpCl-Phe-DPal-Ser-Tyr-DCit-Leu-Arg-Pro-D-Ala-NH2 [cetrorelix acetate],effect of testosterone suppression achieved after the application,[2]; 0.5 mg cetrorelix/kg body weight subcutaneously,6 h
same,duration of testosterone suppression under 1 ng/ml,"[2]; 0.5 mg cetrorelix/kg subcutaneously, values for subgroups of animals (acetate: two animals, three further animals; embonate: one animal)",24 h and up to 48 h
CN(C)CCCN1c2ccccc2CCc2ccccc21 [imipramine HCl],difference to imipramine embonate,[3],no difference

# Reference: patent publication EP0732934B1, “LONG-ACTING INJECTION SUSPENSIONS OF AN LHRH ANALOGUE AND A PROCESS FOR THEIR PREPARATION” (Zentaris GmbH, priority 1993, dated 2005)
